Source: article PMC7115498 (European Journal of Medicinal Chemistry, 2009)
Values after ≈ are worked out from the molar mass of the structure shown. Like-named read-outs stand apart in the source and are kept apart here.

What was measured:
Reovirus-1 = test: organism not typed; type: cell-based; conditions: Vero
Coxsakie virus B4 = test: organism not typed; type: cell-based; conditions: Vero
Parainfluenza-3 virus = test: organism not typed; type: cell-based; conditions: Vero
HIV-1 ROD strain = type: cell-based; conditions: for IC50: MTT method, Exp_nr P3.4402 and P3.4407
MT-4 cells = conditions: MTT method
[1] = test system: Herpes simplex virus-1TK- KOS ACV; test: organism not typed; type: cell-based; conditions: HEL
[2] = Partition coefficient by stir-flask method, octanol-water system; conditions: octanol / 0.1 NaOH solution, 25 °C, UV
HIV-1 IIIB strain = type: cell-based; conditions: for IC50: MTT method, Exp_nr P3.4401 and P3.4406
in vitro [3] = conditions: human, CC50, MT-4 cells, MTT method; IIIB experiments P3.4401 and P3.4406
E. coli = test: Antibacterial microdilution broth susceptibility test; type: cell-based, Escherichia coli; conditions: 24 h, Gram-negative E. coli, 37 °C, no turbidity
HPV = conditions: ref Singh et al. unpublished results; cited from earlier work
[4] = test system: Gram-positive cocci and Gram-negative bacilli; test: Antibacterial activity over all strains tested; type: cell-based; conditions: in vitro
in vitro [5] = conditions: African green monkey, CC50, Vero cells, MTS assay
S. viridans = test: Antibacterial microdilution broth susceptibility test; type: cell-based, Streptococcus viridans; conditions: Gram-positive S. viridans; 37 °C, 24 h, no turbidity
K. pneumoniae = test: as above; type: cell-based, Klebsiella pneumoniae; conditions: Gram-negative K. pneumoniae; 37 °C, 24 h, no turbidity
P. miraleilis = test: as above; type: cell-based, Proteus mirabeilis; conditions: Gram-negative P. miraleilis; 37 °C, 24 h, no turbidity
Feline herpes virus = type: cell-based; conditions: virus O, CRFK cells, MTS assay
CRFK cells = conditions: MTS assay
[6] = test system: Feline corona virus (FIPV); type: cell-based; conditions: virus N, CRFK cells, MTS assay
[7] = ROD experiments P3.4402 and P3.4407

Molecule	EC50 (Reovirus-1)	EC50 (Coxsakie virus B4)	EC50 (Parainfluenza-3 virus)	IC50 (HIV-1 ROD strain; HIV-1 ROD, MT-4 cells)	CC50 (MT-4 cells; [7])	EC50 [1]	also measured
Nc1ncnc2c1ncn2C[C@H](O)CO [(S)-DHPA, reference compound]	> 250 µM	> 250 µM	> 250 µM				
COc1cc(/C=C/C(=O)CC(=O)/C=C/c2ccc(OC(=O)[C@H](Cc3ccccc3)NC(=O)[C@@H](N)Cc3c[nH]c4ccccc34)c(OC)c2)ccc1OC(=O)[C@H](Cc1ccccc1)NC(=O)[C@@H](N)Cc1c[nH]c2ccccc12 [Compound 2, 1,7-Bis-[(4,4-di-O-tryptophanylphenylalanine)3-methoxyphenyl]-1,6-heptadiene-3,5-dione]	> 0.019 µM	> 0.019 µM	> 0.038 µM	> 0.103 µM	0.103 µM	> 0.038 µM	SI (Selectivity index: CC50/IC50 ratio) (HIV-1 ROD strain): <1; P (partition coefficient), stir-flask method [2]: 5.50 × 10^2; SI (Selectivity index: CC50/IC50 ratio) (HIV-1 IIIB strain): <1; IC50 (HIV-1 IIIB strain; HIV-1 IIIB, MT-4 cells): > 0.093 µM; CC50 (in vitro [3]): 0.094 µM
CCCCCCCCCC(=O)Oc1ccc(/C=C/C(=O)CC(=O)/C=C/c2ccc(OC(=O)CCCCCCCCC)c(OC)c2)cc1OC [Compound 3, 1,7-Bis-[(4,4-di-O-decanoyl)3-methoxyphenyl]-1,6-heptadiene-3,5-dione]							P (partition coefficient), stir-flask method [2]: 1.69 × 10^8; MIC (E. coli; Escherichia coli): 0.369 µM (≈ 0.25 µg/mL)
CCCCCCCCCCCCCCCC(=O)Oc1ccc(/C=C/C(=O)CC(=O)/C=C/c2ccc(OC(=O)CCCCCCCCCCCCCCC)c(OC)c2)cc1OC [Compound 4, 1,7-Bis-[(4,4-di-O-pamitoyl)3-methoxyphenyl]-1,6-heptadiene-3,5-dione]							MIC (E. coli; Escherichia coli): 0.591 µM (≈ 0.5 µg/mL)
COc1cc(/C=C/C(=O)CC(=O)/C=C/c2ccc(OC(=O)CCC(NC(=O)c3ccc(NCc4cnc5nc(N)[nH]c(=O)c5n4)cc3)C(=O)O)c(OC)c2)ccc1OC(=O)CCC(NC(=O)c1ccc(NCc2cnc3nc(N)[nH]c(=O)c3n2)cc1)C(=O)O (stereo not drawn) [Compound 6, 1,7-Bis-[(4,4-di-O-bis-(γ,γ)-folyl)3-methoxyphenyl]-1,6-heptadiene-3,5-dione]	> 0.082 µM	> 0.082 µM	> 0.082 µM	> 0.05 µM	0.05 µM	> 0.082 µM	IC50 (HIV-1 IIIB strain; HIV-1 IIIB, MT-4 cells): > 0.046 µM; Activity against HPV causing cervical cancer (HPV): very active
COc1cc(/C=C/C(=O)C(CCOC(=O)CCC(NC(=O)c2ccc(NCc3cnc4nc(N)[nH]c(=O)c4n3)cc2)C(=O)O)C(=O)/C=C/c2ccc(O)c(OC)c2)ccc1O (stereo not drawn) [Compound 8, 1,7-Bis-[(4-hydroxy-3-methoxyphenyl)]-1,6-heptadiene-C^4-ethyl-O-folyl-3,5-dione]	> 0.011 µM	> 0.011 µM	> 0.011 µM	> 0.062 µM	0.062 µM	> 0.011 µM	
COc1cc(/C=C/C(=O)CC(=O)/C=C/c2ccc(OCCOC(=O)CCC(NC(=O)c3ccc(NCc4cnc5nc(N)[nH]c(=O)c5n4)cc3)C(=O)O)c(OC)c2)ccc1O (stereo not drawn) [Compound 10, 1-(4-Hydroxy-3-methoxyphenyl)-7-(4-O-ethyl-O-folyl-3-methoxyphenyl)-1,6-heptadiene-3,5-dione]	> 0.119 µM	> 0.119 µM	> 0.119 µM	> 0.088 µM	0.088 µM	> 0.119 µM	SI (Selectivity index: CC50/IC50 ratio) (HIV-1 ROD strain; HIV-1 ROD, MT-4 cells): <1; CC50 (MT-4 cells; IIIB experiments P3.4401 and P3.4406): 0.058 µM; SI (Selectivity index: CC50/IC50 ratio) (HIV-1 IIIB strain; HIV-1 IIIB, MT-4 cells): <1; IC50 (HIV-1 IIIB strain; HIV-1 IIIB, MT-4 cells): > 0.058 µM
COc1cc(/C=C/C(=O)CC(=O)/C=C/c2ccc(O)c(OC)c2)ccc1O [Curcumin, 1,7-bis(4-hydroxy-3-methoxyphenyl)-1,6-heptadiene-3,5-dione, reference compound]	> 0.01 µM	> 0.01 µM	> 0.01 µM				P (partition coefficient), stir-flask method [2]: 1.70 × 10^2; MIC range over all strains [4]: 1.23 to 2.47 µM
NC(=O)c1ncn([C@@H]2O[C@H](CO)[C@@H](O)[C@H]2O)n1 [Ribavirin]	250 µM	> 250 µM					CC50 (in vitro [5]; column J (Reovirus-1)): > 250 µM; CC50 (in vitro [5]; column K (Sindbis virus)): > 250 µM; CC50 (in vitro [5]; column L (Coxsakie virus B4)): > 250 µM; CC50 (in vitro [5]; column M (Punta toro virus)): > 250 µM
Gentamycin sulfate							MIC (S. viridans): >1.73 µM; MIC (K. pneumoniae): >1.73 µM; MIC (P. miraleilis): >1.73 µM; MIC (E. coli): >1.73 µM
UDA: reference in Table 2 (CRFK), not defined in the paper; presumably a plant lectin (protein, UniProt P11218 24-372, looked up) Lectin/endochitinase 1: QRCGSQGGGGTCPALWCCSIWGWCGDSEPYCGRTCENKCWSGERSDHRCGAAVGNPPCGQDRCCSVHGWCGGGNDYCSGSKCQYRCSSSVRGPRVALSGNSTANSIGNVVVTEPLFDQMFSHRKDCPSQGFYSYHSFLVAAESFPAFGTIGDVATRKREVAAFLAHISQATSGERSDVENPHAWGLCHINTTTVTENDFCTSSDWPCAAGKKYSPRGPIQLTHNFNYGLAGQAIGEDLIQNPDLVEKDPIISFKTALWFWMSQHDNKPSCHDIVLNANSAANRIPNKGVIGNIISRAFGHDDFAVRSSSIGFYKRYCDMLGVSYGHDLKYWFDNTPSSEFQRIQMRVAA							EC50 (Feline herpes virus): 2.9 µM; CC50 (CRFK cells; column N (Feline corona virus FIPV)): > 100 µM; CC50 (CRFK cells; column O (Feline herpes virus)): > 100 µM; EC50 [6]: 1.3 µM
